The target of data set [1] is T1, Solute carrier organic anion transporter family member 2B1 (Homo sapiens, UniProt O94956).
T1 sequence (O94956 whole entry): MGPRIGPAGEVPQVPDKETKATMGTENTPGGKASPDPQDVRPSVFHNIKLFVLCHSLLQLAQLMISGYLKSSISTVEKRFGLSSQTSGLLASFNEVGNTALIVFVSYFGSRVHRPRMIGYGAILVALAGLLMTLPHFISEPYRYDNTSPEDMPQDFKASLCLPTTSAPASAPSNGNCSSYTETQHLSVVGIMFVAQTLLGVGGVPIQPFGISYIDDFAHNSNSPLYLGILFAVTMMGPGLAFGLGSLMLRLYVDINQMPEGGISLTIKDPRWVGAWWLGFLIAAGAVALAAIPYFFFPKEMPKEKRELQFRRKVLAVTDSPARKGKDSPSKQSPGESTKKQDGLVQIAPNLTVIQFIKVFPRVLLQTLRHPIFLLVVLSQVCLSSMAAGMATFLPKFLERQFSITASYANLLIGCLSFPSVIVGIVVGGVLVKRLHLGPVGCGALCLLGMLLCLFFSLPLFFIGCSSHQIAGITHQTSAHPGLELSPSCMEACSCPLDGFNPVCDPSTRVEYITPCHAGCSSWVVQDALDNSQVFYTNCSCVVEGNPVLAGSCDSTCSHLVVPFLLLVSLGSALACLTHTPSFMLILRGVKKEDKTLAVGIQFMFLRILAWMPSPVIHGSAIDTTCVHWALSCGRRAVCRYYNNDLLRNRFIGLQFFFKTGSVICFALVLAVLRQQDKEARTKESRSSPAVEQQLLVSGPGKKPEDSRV
Nature of the data set: Inhibition of human liver OATP2B1 expressed in HEK293 Flp-In cells assessed as reduction in [3H]E3S uptake at 20 uM incubated for 5 mins by scintillation counting. Conditions: hek293, 5 min.

For data set [2], the target named is T2, Solute carrier organic anion transporter family member 1B1 (Homo sapiens, UniProt Q9Y6L6).
T2 sequence (Q9Y6L6 whole entry): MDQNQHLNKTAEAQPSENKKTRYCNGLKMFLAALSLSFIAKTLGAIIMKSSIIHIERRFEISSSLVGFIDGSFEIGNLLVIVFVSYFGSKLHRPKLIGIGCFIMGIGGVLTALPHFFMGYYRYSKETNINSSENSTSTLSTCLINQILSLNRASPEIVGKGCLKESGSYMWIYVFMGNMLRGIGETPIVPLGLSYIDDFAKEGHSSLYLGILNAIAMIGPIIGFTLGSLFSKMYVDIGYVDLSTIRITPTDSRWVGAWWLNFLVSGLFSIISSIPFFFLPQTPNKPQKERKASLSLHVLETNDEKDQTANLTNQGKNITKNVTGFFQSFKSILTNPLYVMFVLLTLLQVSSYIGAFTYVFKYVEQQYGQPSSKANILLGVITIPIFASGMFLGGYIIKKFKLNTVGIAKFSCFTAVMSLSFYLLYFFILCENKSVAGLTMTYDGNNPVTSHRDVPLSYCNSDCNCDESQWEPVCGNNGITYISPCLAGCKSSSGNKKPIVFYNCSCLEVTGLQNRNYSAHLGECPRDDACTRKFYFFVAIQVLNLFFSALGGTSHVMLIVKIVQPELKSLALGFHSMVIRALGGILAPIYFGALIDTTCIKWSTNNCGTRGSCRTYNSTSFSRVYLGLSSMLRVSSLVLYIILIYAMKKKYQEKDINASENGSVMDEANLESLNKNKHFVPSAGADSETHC
Nature of the data set: Inhibition of human liver OATP1B1 expressed in HEK293 Flp-In cells assessed as reduction in E17-betaG uptake at 20 uM by scintillation counting. The note with it: hek293, 20 µM.

The target in data set [3] is T3, Solute carrier organic anion transporter family member 1B3 (Homo sapiens, UniProt Q9NPD5).
T3 sequence (Q9NPD5 whole entry): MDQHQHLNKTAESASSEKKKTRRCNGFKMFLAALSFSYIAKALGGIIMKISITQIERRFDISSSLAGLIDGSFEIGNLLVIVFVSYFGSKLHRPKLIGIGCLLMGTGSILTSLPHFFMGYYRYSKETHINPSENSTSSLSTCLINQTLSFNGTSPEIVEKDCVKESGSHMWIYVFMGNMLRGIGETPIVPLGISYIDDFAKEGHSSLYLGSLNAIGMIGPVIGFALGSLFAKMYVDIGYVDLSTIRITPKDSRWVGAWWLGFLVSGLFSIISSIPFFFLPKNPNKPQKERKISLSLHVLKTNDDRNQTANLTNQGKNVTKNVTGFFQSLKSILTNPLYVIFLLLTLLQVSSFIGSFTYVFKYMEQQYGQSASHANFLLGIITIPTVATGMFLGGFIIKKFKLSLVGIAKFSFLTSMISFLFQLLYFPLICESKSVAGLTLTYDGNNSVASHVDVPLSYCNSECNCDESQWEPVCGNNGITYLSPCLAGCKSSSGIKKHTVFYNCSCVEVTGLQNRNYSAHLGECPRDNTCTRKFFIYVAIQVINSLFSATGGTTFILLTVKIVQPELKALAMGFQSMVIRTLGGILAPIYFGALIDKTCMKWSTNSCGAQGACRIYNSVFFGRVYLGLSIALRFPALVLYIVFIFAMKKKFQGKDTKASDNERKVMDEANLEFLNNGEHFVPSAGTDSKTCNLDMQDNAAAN
Nature of the data set: Inhibition of human liver OATP1B3 expressed in HEK293 Flp-In cells assessed as reduction in [3H]E17-betaG uptake at 20 uM incubated for 5 mins by scintillation counting. Conditions: hek293, 5 min.

Take `CC1(C)C(/C=C/C=C/C=C/C=C2/N(CCCCS(=O)(=O)[O-])c3ccc4ccccc4c3C2(C)C)=[N+](CCCCS(=O)(=O)[O-])c2ccc3ccccc3c21.[Na+]` [INDOCYANINE GREEN]: the INH was determined as 79.2% in data set [1], 86.1% in data set [2] and 100.1% in data set [3].

Consider `COc1ccc2c(c1)c(CC(=O)O)c(C)n2C(=O)c1ccc(Cl)cc1` [INDOMETHACIN], for which the results for the INH in data set [1], in data set [2] and in data set [3] were -82.4%, 88.6% and 48.6%, respectively.

Turning to `CCc1c2c(nc3ccc(OC(=O)N4CCC(N5CCCCC5)CC4)cc13)-c1cc3c(c(=O)n1C2)COC(=O)[C@]3(O)CC` [IRINOTECAN], the INH in data set [1] stood at 16.3%; in data set [2] it was 40.5%; in data set [3], 26.9%.

For `NNC(=O)c1ccncc1` [ISONIAZID], the INH is given as 23.8% in data set [1], 29.9% in data set [2] and 18.7% in data set [3].

Turning to `COC(=O)C1=C(C)NC(C)=C(C(=O)OC(C)C)C1c1cccc2nonc12` (configuration not stated) [ISRADIPINE], the INH is listed as 12% in data set [1], 47.5% in data set [2] and 7.7% in data set [3].

Regarding `CCC(C)n1ncn(-c2ccc(N3CCN(c4ccc(OCC5COC(Cn6cncn6)(c6ccc(Cl)cc6Cl)O5)cc4)CC3)cc2)c1=O` (configuration not stated) [ITRACONAZOLE], the values for the INH in data set [1], in data set [2] and in data set [3] were 59.8%, 22.3% and -2.3%, respectively.

In the case of `CC(=O)N1CCN(c2ccc(OCC3COC(Cn4ccnc4)(c4ccc(Cl)cc4Cl)O3)cc2)CC1` (configuration not stated) [KETOCONAZOLE], the INH in data set [1] is listed as 44%; in data set [2], 53.6%; in data set [3] it was 24.7%.

In the case of `Nc1nnc(-c2cccc(Cl)c2Cl)c(N)n1` [LAMOTRIGINE], the INH in data set [1] was found to be 13.6%; in data set [2] it was 24.9%; in data set [3], 14.5%.

In the case of `Cc1c(OCC(F)(F)F)ccnc1C[S+]([O-])c1nc2ccccc2[nH]1` (configuration not stated) [LANSOPRAZOLE], the INH in data set [1] is -75.7%; in data set [2], 31.4%; in data set [3] it was 23.3%.

Take `NCCCC[C@H](N[C@@H](CCc1ccccc1)C(=O)O)C(=O)N1CCC[C@H]1C(=O)O` [LISINOPRIL ANHYDROUS]: the INH in data set [1] was found to be 19.2%; in data set [2], 4.6%; in data set [3], 9%.

Consider `CN(C)C(=O)C(CCN1CCC(O)(c2ccc(Cl)cc2)CC1)(c1ccccc1)c1ccccc1` [LOPERAMIDE], for which the INH stood at 19.6% in data set [1], 32.5% in data set [2] and 32.4% in data set [3].

In the case of `Cc1cccc(C)c1OCC(=O)N[C@@H](Cc1ccccc1)[C@@H](O)C[C@H](Cc1ccccc1)NC(=O)[C@H](C(C)C)N1CCCNC1=O` [LOPINAVIR], the INH is 86.4% in data set [1], 85.8% in data set [2] and 84.6% in data set [3].

In the case of `CC[C@H](C)C(=O)O[C@H]1C[C@@H](C)C=C2C=C[C@H](C)[C@H](CC[C@@H]3C[C@@H](O)CC(=O)O3)[C@H]21` [LOVASTATIN], the results for the INH in data set [1], in data set [2] and in data set [3] were -17.9%, 66.5% and 21.3%, respectively.

Consider `CCC1(c2ccccc2)NC(=O)N(C)C1=O` (configuration not stated) [MEPHENYTOIN], for which the INH is recorded as 32.9% in data set [1], -5.7% in data set [2] and -0.6% in data set [3].

`CN(Cc1cnc2nc(N)nc(N)c2n1)c1ccc(C(=O)N[C@@H](CCC(=O)O)C(=O)O)cc1` [METHOTREXATE]: the INH was -13.4% in data set [1], 27.4% in data set [2] and 17.2% in data set [3].

Turning to `COc1c2occc2cc2ccc(=O)oc12` [METHOXSALEN], the figures for the INH in data set [1], in data set [2] and in data set [3] were -1.6%, 38.1% and 8.9%, respectively.

Turning to `COCCc1ccc(OCC(O)CNC(C)C)cc1` (configuration not stated) [METOPROLOL], the INH worked out at 30.5% in data set [1], 28.1% in data set [2] and 19.8% in data set [3].

`Cc1ncc2n1-c1ccc(Cl)cc1C(c1ccccc1F)=NC2` [MIDAZOLAM]: the results for the INH in data set [1], in data set [2] and in data set [3] were 22.7%, 32.9% and 6.7%, respectively.

Consider `CC#C[C@]1(O)CC[C@H]2[C@@H]3CCC4=CC(=O)CCC4=C3[C@@H](c3ccc(N(C)C)cc3)C[C@@]21C` [MIFEPRISTONE], for which the INH in data set [1] came to 70.7%; in data set [2] it was 81.2%; in data set [3], 80.3%.

Consider `O=C1c2c(O)ccc(O)c2C(=O)c2c(NCCNCCO)ccc(NCCNCCO)c21` [MITOXANTRONE], for which the values for the INH in data set [1], in data set [2] and in data set [3] were 48.3%, 27.2% and 67.9%, respectively.

As for `CN(C)C(=O)CCSC(SCCC(=O)O)c1cccc(/C=C/c2ccc3ccc(Cl)cc3n2)c1` (configuration not stated) [MK-571], the values for the INH in data set [1], in data set [2] and in data set [3] were 75.2%, 88.5% and 80.7%, respectively.

Consider `O=C(NCCN1CCOCC1)c1ccc(Cl)cc1` [MOCLOBEMIDE], for which the figures for the INH in data set [1], in data set [2] and in data set [3] were 27.5%, 1.7% and -3.3%, respectively.

As to `O=c1c(O)c(-c2ccc(O)cc2O)oc2cc(O)cc(O)c12` [MORIN], the figures for the INH in data set [1], in data set [2] and in data set [3] were 71.3%, 85.2% and 78.5%, respectively.

`O=C1C[C@@H](c2ccc(O)cc2)Oc2cc(O)cc(O)c21` [NARINGENIN]: the INH in data set [1] is 32.4%; in data set [2], 34.8%; in data set [3], -57.2%.

On to `C[C@@H]1O[C@@H](O[C@H]2[C@H](Oc3cc(O)c4c(c3)O[C@H](c3ccc(O)cc3)CC4=O)O[C@H](CO)[C@@H](O)[C@@H]2O)[C@H](O)[C@H](O)[C@H]1O` [NARINGIN], for which the INH in data set [1] amounted to 47.1%; in data set [2], 34%; in data set [3], 37.7%.

For `CCc1nn(CCCN2CCN(c3cccc(Cl)c3)CC2)c(=O)n1CCOc1ccccc1` [NEFAZODONE], the INH was 61.5% in data set [1], 12% in data set [2] and 61.4% in data set [3].

With `COC(=O)C1=C(C)NC(C)=C(C(=O)OCCN(C)Cc2ccccc2)C1c1cccc([N+](=O)[O-])c1` (configuration not stated) [NICARDIPINE], the INH in data set [1] stood at 31.8%; in data set [2] it was 65.1%; in data set [3], 10.1%.

As for `CN1CCC[C@H]1c1cccnc1` [NICOTINE], the values for the INH in data set [1], in data set [2] and in data set [3] were -16.5%, 6.9% and 11%, respectively.

On to `CNC(=O)c1cccnc1` [NICOTINYL METHYLAMIDE], for which the INH was 14.5% in data set [1], 71.4% in data set [2] and -0.5% in data set [3].

Values taken from ChEMBL document CHEMBL2163248, “Classification of inhibitors of hepatic organic anion transporting polypeptides (OATPs): influence of protein expression on drug-drug interactions” (J Med Chem, 2012).
